Measurements as given in the NIST ThermoML archive (doi:10.1021/acs.jced.8b00132).
Where “and” joins values, the source holds several entries; their conditions need not be identical. Equal entries are not always repeated.

Conditions: Gas

O=C(C(F)(F)C(F)(F)F)C(F)(C(F)(F)F)C(F)(F)F [dodecafluoro-2-methylpentan-3-one]
Conditions	thermal conductivity
453.04 K, 2349 kPa, transient hot wire	0.03749 W/m/K
453.05 K, 2432 kPa, transient hot wire	0.03632 W/m/K
453.06 K, 2213 kPa, transient hot wire	0.03787 W/m/K
453.06 K, 2283 kPa, transient hot wire	0.039 W/m/K
453.07 K, 2432 kPa, transient hot wire	0.03565 W/m/K
453.08 K, 2213 kPa, transient hot wire	0.03857 W/m/K and 0.03787 W/m/K
453.09 K, 2350 kPa, transient hot wire	0.03794 W/m/K and 0.03775 W/m/K
453.11 K, 2432 kPa, transient hot wire	0.03612 W/m/K and 0.03616 W/m/K
453.11 K, 2570 kPa, transient hot wire	0.03577 W/m/K and 0.03583 W/m/K
453.11 K, 2808 kPa, transient hot wire	0.03624 W/m/K and 0.03614 W/m/K
453.14 K, 2350 kPa, transient hot wire	0.03841 W/m/K and 0.03851 W/m/K
453.15 K, 2570 kPa, transient hot wire	0.0359 W/m/K
453.16 K, 2433 kPa, transient hot wire	0.03632 W/m/K
453.17 K, 2136 kPa, transient hot wire	0.03394 W/m/K and 0.03367 W/m/K
453.17 K, 2432 kPa, transient hot wire	0.03641 W/m/K
453.17 K, 2808 kPa, transient hot wire	0.03589 W/m/K
453.19 K, 5686 kPa, transient hot wire	0.04064 W/m/K
453.21 K, 2136 kPa, transient hot wire	0.03328 W/m/K
453.21 K, 2570 kPa, transient hot wire	0.03619 W/m/K
453.21 K, 3282 kPa, transient hot wire	0.03735 W/m/K
453.21 K, 3283 kPa, transient hot wire	0.03693 W/m/K
453.22 K, 2136 kPa, transient hot wire	0.03435 W/m/K
453.22 K, 2432 kPa, transient hot wire	0.03662 W/m/K
453.22 K, 2570 kPa, transient hot wire	0.03586 W/m/K
453.22 K, 2810 kPa, transient hot wire	0.03611 W/m/K
453.23 K, 2433 kPa, transient hot wire	0.03706 W/m/K
453.23 K, 2810 kPa, transient hot wire	0.03619 W/m/K
453.23 K, 8482 kPa, transient hot wire	0.04362 W/m/K
453.24 K, 8482 kPa, transient hot wire	0.04354 W/m/K
453.26 K, 5649 kPa, transient hot wire	0.04056 W/m/K
453.27 K, 3283 kPa, transient hot wire	0.03745 W/m/K
453.27 K, 5649 kPa, transient hot wire	0.04057 W/m/K
453.28 K, 2570 kPa, transient hot wire	0.03618 W/m/K
453.29 K, 2570 kPa, transient hot wire	0.03626 W/m/K
453.29 K, 2810 kPa, transient hot wire	0.03632 W/m/K
453.29 K, 4172 kPa, transient hot wire	0.03871 W/m/K
453.29 K, 4174 kPa, transient hot wire	0.03872 W/m/K
453.3 K, 2810 kPa, transient hot wire	0.03661 W/m/K
453.33 K, 2570 kPa, transient hot wire	0.03666 W/m/K
453.33 K, 3284 kPa, transient hot wire	0.03713 W/m/K
453.34 K, 1996 kPa, transient hot wire	0.03032 W/m/K
453.34 K, 3284 kPa, transient hot wire	0.03709 W/m/K
453.34 K, 5678 kPa, transient hot wire	0.04058 W/m/K
453.34 K, 5680 kPa, transient hot wire	0.0407 W/m/K
453.36 K, 1997 kPa, transient hot wire	0.02939 W/m/K
453.36 K, 2570 kPa, transient hot wire	0.03639 W/m/K
453.36 K, 2811 kPa, transient hot wire	0.03631 W/m/K
453.37 K, 8482 kPa, transient hot wire	0.04354 W/m/K
453.38 K, 8480 kPa, transient hot wire	0.0435 W/m/K
453.39 K, 4177 kPa, transient hot wire	0.03877 W/m/K
453.4 K, 3286 kPa, transient hot wire	0.03741 W/m/K
453.4 K, 5646 kPa, transient hot wire	0.04064 W/m/K
453.4 K, 13124 kPa, transient hot wire	0.04703 W/m/K and 0.04697 W/m/K
453.41 K, 3285 kPa, transient hot wire	0.03741 W/m/K
453.41 K, 5645 kPa, transient hot wire	0.04067 W/m/K
453.42 K, 1998 kPa, transient hot wire	0.02991 W/m/K and 0.02978 W/m/K
453.46 K, 20262 kPa, transient hot wire	0.05129 W/m/K
453.48 K, 3286 kPa, transient hot wire	0.03719 W/m/K
453.48 K, 5676 kPa, transient hot wire	0.04078 W/m/K
453.48 K, 20262 kPa, transient hot wire	0.05134 W/m/K
453.49 K, 4182 kPa, transient hot wire	0.03866 W/m/K
453.49 K, 5674 kPa, transient hot wire	0.04064 W/m/K
453.49 K, 8479 kPa, transient hot wire	0.04353 W/m/K
453.5 K, 4184 kPa, transient hot wire	0.03869 W/m/K
453.5 K, 31253 kPa, transient hot wire	0.05652 W/m/K
453.51 K, 8480 kPa, transient hot wire	0.04354 W/m/K
453.51 K, 31255 kPa, transient hot wire	0.05656 W/m/K
453.52 K, 1999 kPa, transient hot wire	0.03046 W/m/K
453.52 K, 13123 kPa, transient hot wire	0.04703 W/m/K
453.53 K, 13124 kPa, transient hot wire	0.04696 W/m/K
453.54 K, 5643 kPa, transient hot wire	0.04051 W/m/K
453.55 K, 47061 kPa, transient hot wire	0.06271 W/m/K
453.56 K, 1718 kPa, transient hot wire	0.02564 W/m/K
453.58 K, 1718 kPa, transient hot wire	0.02573 W/m/K
453.6 K, 4188 kPa, transient hot wire	0.03889 W/m/K
453.6 K, 46969 kPa, transient hot wire	0.06282 W/m/K
453.6 K, 46979 kPa, transient hot wire	0.06275 W/m/K
453.62 K, 4187 kPa, transient hot wire	0.03872 W/m/K
453.62 K, 20261 kPa, transient hot wire	0.05127 W/m/K
453.62 K, 20264 kPa, transient hot wire	0.05121 W/m/K
453.63 K, 5670 kPa, transient hot wire	0.04057 W/m/K
453.63 K, 5671 kPa, transient hot wire	0.04054 W/m/K
453.63 K, 31252 kPa, transient hot wire	0.05654 W/m/K
453.64 K, 526 kPa, hot wire	0.02431 W/m/K
453.64 K, 8480 kPa, transient hot wire	0.04343 W/m/K
453.64 K, 31251 kPa, transient hot wire	0.05647 W/m/K
453.65 K, 526 kPa, hot wire	0.02432 W/m/K
453.66 K, 8479 kPa, transient hot wire	0.04348 W/m/K
453.66 K, 47049 kPa, transient hot wire	0.06259 W/m/K
453.67 K, 1718 kPa, transient hot wire	0.02603 W/m/K
453.67 K, 47042 kPa, transient hot wire	0.06272 W/m/K
453.68 K, 1718 kPa, transient hot wire	0.02589 W/m/K
453.68 K, 13120 kPa, transient hot wire	0.04693 W/m/K
453.68 K, 13121 kPa, transient hot wire	0.04701 W/m/K
453.69 K, 5641 kPa, transient hot wire	0.04062 W/m/K
453.7 K, 353 kPa, hot wire	0.02345 W/m/K
453.7 K, 5640 kPa, transient hot wire	0.04066 W/m/K
453.72 K, 350 kPa, hot wire	0.02302 W/m/K
453.73 K, 171 kPa, hot wire	0.02261 W/m/K
453.73 K, 174 kPa, hot wire	0.0228 W/m/K
453.73 K, 4189 kPa, transient hot wire	0.03831 W/m/K
453.73 K, 4192 kPa, transient hot wire	0.03871 W/m/K
453.73 K, 46962 kPa, transient hot wire	0.06254 W/m/K
453.73 K, 46969 kPa, transient hot wire	0.06263 W/m/K
453.74 K, 525 kPa, hot wire	0.0244 W/m/K
453.75 K, 524 kPa, hot wire	0.02432 W/m/K
453.75 K, 1718 kPa, transient hot wire	0.02601 W/m/K
453.76 K, 1718 kPa, transient hot wire	0.02605 W/m/K
453.77 K, 20261 kPa, transient hot wire	0.05121 W/m/K
453.77 K, 20262 kPa, transient hot wire	0.0513 W/m/K
453.78 K, 48 kPa, hot wire	0.02241 W/m/K
453.78 K, 31246 kPa, transient hot wire	0.0566 W/m/K
453.79 K, 31248 kPa, transient hot wire	0.05653 W/m/K
453.8 K, 48 kPa, hot wire	0.02228 W/m/K
453.8 K, 344 kPa, hot wire	0.0233 W/m/K
453.8 K, 347 kPa, hot wire	0.02342 W/m/K
453.8 K, 5666 kPa, transient hot wire	0.0408 W/m/K
453.8 K, 8477 kPa, transient hot wire	0.04345 W/m/K
453.81 K, 1718 kPa, transient hot wire	0.02631 W/m/K
453.81 K, 47035 kPa, transient hot wire	0.06264 W/m/K
453.82 K, 8478 kPa, transient hot wire	0.0434 W/m/K
453.84 K, 171 kPa, hot wire	0.02268 W/m/K
453.84 K, 524 kPa, hot wire	0.02443 W/m/K
453.84 K, 13123 kPa, transient hot wire	0.04696 W/m/K
453.85 K, 170 kPa, hot wire	0.02247 W/m/K
453.85 K, 13121 kPa, transient hot wire	0.04695 W/m/K
453.86 K, 523 kPa, hot wire	0.02411 W/m/K
453.87 K, 5638 kPa, transient hot wire	0.0407 W/m/K
453.87 K, 46957 kPa, transient hot wire	0.06253 W/m/K
453.88 K, 47 kPa, hot wire	0.02246 W/m/K and 0.02258 W/m/K
453.88 K, 1718 kPa, transient hot wire	0.02616 W/m/K and 0.02618 W/m/K
453.88 K, 46954 kPa, transient hot wire	0.06253 W/m/K
453.9 K, 340 kPa, hot wire	0.02338 W/m/K
453.9 K, 342 kPa, hot wire	0.02344 W/m/K
453.91 K, 1365 kPa, transient hot wire	0.02445 W/m/K
453.92 K, 1364 kPa, transient hot wire	0.02439 W/m/K
453.93 K, 20259 kPa, transient hot wire	0.05122 W/m/K
453.94 K, 524 kPa, hot wire	0.02452 W/m/K
453.94 K, 1718 kPa, transient hot wire	0.02654 W/m/K
453.94 K, 1719 kPa, transient hot wire	0.02663 W/m/K
453.94 K, 20259 kPa, transient hot wire	0.05128 W/m/K
453.94 K, 31248 kPa, transient hot wire	0.05655 W/m/K
453.95 K, 170 kPa, hot wire	0.0227 W/m/K and 0.02256 W/m/K
453.95 K, 524 kPa, hot wire	0.02446 W/m/K
453.95 K, 31244 kPa, transient hot wire	0.05645 W/m/K
453.95 K, 47020 kPa, transient hot wire	0.06258 W/m/K
453.96 K, 47012 kPa, transient hot wire	0.06261 W/m/K
453.98 K, 48 kPa, hot wire	0.02243 W/m/K and 0.02253 W/m/K
454.01 K, 338 kPa, hot wire	0.02346 W/m/K
454.02 K, 339 kPa, hot wire	0.02333 W/m/K
454.02 K, 13121 kPa, transient hot wire	0.047 W/m/K and 0.04696 W/m/K
454.02 K, 46938 kPa, transient hot wire	0.06262 W/m/K
454.02 K, 46945 kPa, transient hot wire	0.06264 W/m/K
454.06 K, 523 kPa, hot wire	0.02445 W/m/K
454.07 K, 170 kPa, hot wire	0.02273 W/m/K
454.07 K, 522 kPa, hot wire	0.02433 W/m/K
454.07 K, 1364 kPa, transient hot wire	0.02449 W/m/K
454.07 K, 1365 kPa, transient hot wire	0.02446 W/m/K
454.07 K, 1718 kPa, transient hot wire	0.02688 W/m/K and 0.02682 W/m/K
454.08 K, 169 kPa, hot wire	0.02266 W/m/K
454.09 K, 48 kPa, hot wire	0.02257 W/m/K
454.1 K, 48 kPa, hot wire	0.0225 W/m/K
454.1 K, 20256 kPa, transient hot wire	0.0513 W/m/K and 0.05118 W/m/K
454.1 K, 31241 kPa, transient hot wire	0.05644 W/m/K
454.1 K, 31244 kPa, transient hot wire	0.05644 W/m/K
454.11 K, 47006 kPa, transient hot wire	0.06269 W/m/K
454.13 K, 337 kPa, hot wire	0.02342 W/m/K
454.13 K, 338 kPa, hot wire	0.0234 W/m/K
